Experimental data taken from patent US20260265538A1, “Aqueous Industrial Product Stabilized Against Microbial Contamination” (Thor GmbH, priority 2023, published 2026).

System: Bacteria mixture 2 (alkaliphilic bacteria of the Nesterenkonia & Alkalibacterium genus)
Assay: Repetitive stress test of paints with bacteria mixture 2, semiquantitative evaluation (examples 4 and 5)
Type: cell-based
Set-up: key to Bacterial growth after inoculation: 0: No growth; Minimal growth, 1 to 10 colonies visible over the entire streak; 2: Light growth, maximum 100 colonies; Moderate growth, maximum 300 to 400 colonies; Uniform growth, >400 colonies, single colonies still clearly recognizable; 5: Heavy growth, too many colonies to count, but no growth over the entire streak; 6: Full growth, barely any single colonies still apparent, growth over the entire streak
Text: Paints 1 to 3 were mixed and homogenized with various concentrations of the guanidinium salts to be tested.
The batches obtained of the paint thus prepared were inoculated repeatedly with a mixture of different wild-type bacterial strains that are of practical relevance with regard to contamination. These bacteria had previously been isolated from commercial emulsion paints containing conventional preservatives (bacteria mixture 1, Pseudomonas genus), which are microbially contaminated in practice, and commercial so-called preservative-free alkaline emulsion paints (bacteria mixture 2, alkaliphilic bacteria of the Nesterenkonia & Alkalibacterium genus), which are microbially contaminated in practice.
• Nesterenkonia sp. DSM 108520 • Nesterenkonia sp. DSM 108521 • Alkalibacterium pelagium DSM 108522 • Nesterenkonia massiliensis DSM 110679 • Nesterenkonia sp. DSM 108519
The inoculum was added to the respective sample in each inoculation at 2% (v/w) as a fresh cell suspension in a physiological saline solution (0.9% NaCl). The cell count of the added inoculum in example 1 was 10^5/ml, in examples 2 to 5 10^9/ml, and in example 6 10^6/ml, each in equal portions consisting of the individual bacterial strains. The cell suspension was produced by growing the individual bacteria at 30° C. for 24 h in liquid culture on a shaker. The medium used to grow the bacteria from bacteria mixture 1 was Müller-Hinton liquid medium. Bacteria from bacteria mixture 2 were grown in Müller-Hinton liquid medium that had been adjusted to pH 9.5-9.7 with an alkaline buffer solution beforehand. After growing, the individual liquid cultures were centrifuged, and the cells were resuspended in physiological saline solution. In order to adjust the mixture to the desired cell count, the individual bacteria suspensions, if necessary, were diluted accordingly before being combined with saline solution. The cell count of the inoculum was determined in each case by chamber counting.
In examples 2 to 6, what is called a repetitive stress test with bacteria was conducted by inoculating the samples at particular time intervals repeatedly with a bacteria suspension having a cell count of 10^9/ml (2% v/w) and monitoring the evolution of the bacteria by a semiquantitative evaluation method. After each inoculation, the samples were incubated at 30° C. for 6 days (bacteria mixture 1 and 3) or 7 and 14 days (bacteria mixture 2), and after these periods bacterial infestation was evaluated semiquantitatively in each case. For this purpose, an aliquot was taken from each sample after homogenization using a sterile plastic inoculation loop (10 μl) and streaked evenly on agar plates (bacteria mixture 1 and 3 on tryptic soy agar, bacteria mixture 2 on DSMZ 31 alkaline nutrient agar). The streaked agar plates were then incubated at 30° C. for 48 h (bacteria mixture 1 and 3) or 5 to 7 days (bacteria mixture 2). After incubation, the bacterial colonies grown on the agar plates were visually evaluated and quantified according to the following scheme:
A total of 3 inoculation cycles was performed in each repetitive stress test.
Inoculation 2% (w/v) with Bacteria Mixture 2, 10^9 CFU/ml

SMILES: N=C(N)N.N=C(N)N.O=C(O)O [guanidine carbonate]
- Bacterial growth after inoculation (Table 4, Paint 2, +0.1% guanidine carbonate (656 ppm guanidine), pH 8.9, 2. inoculation, 14 d): 4 (Uniform growth, >400 colonies, single colonies still clearly recognizable)
- Bacterial growth after inoculation (Table 4, Paint 2, +0.1% guanidine carbonate (656 ppm guanidine), pH 8.9, 3. inoculation, 7 d): 6/6
- Bacterial growth after inoculation (Table 4, Paint 2, +0.1% guanidine carbonate (656 ppm guanidine), pH 8.9, 3. inoculation, 14 d): 6/6
- Bacterial growth after inoculation (Table 4, Paint 2, +0.15% guanidine carbonate (984 ppm guanidine), pH 9.0, 1. inoculation, 7 d): 0/0
- Bacterial growth after inoculation (Table 4, Paint 2, +0.15% guanidine carbonate (984 ppm guanidine), pH 9.0, 1. inoculation, 14 d): 0/0
- Bacterial growth after inoculation (Table 4, Paint 2, +0.15% guanidine carbonate (984 ppm guanidine), pH 9.0, 2. inoculation, 7 d): 2 (Light growth, maximum 100 colonies)
- Bacterial growth after inoculation (Table 4, Paint 2, +0.15% guanidine carbonate (984 ppm guanidine), pH 9.0, 2. inoculation, 14 d): 1 (Minimal growth, 1 to 10 colonies visible over the entire streak)
- Bacterial growth after inoculation (Table 4, Paint 2, +0.15% guanidine carbonate (984 ppm guanidine), pH 9.0, 3. inoculation, 7 d): 6/6
- Bacterial growth after inoculation (Table 4, Paint 2, +0.15% guanidine carbonate (984 ppm guanidine), pH 9.0, 3. inoculation, 14 d): 6/6
- Bacterial growth after inoculation (Table 4, Paint 2, +0.2% guanidine carbonate (1312 ppm guanidine), pH 9.1, 1. inoculation, 7 d): 0/0
- Bacterial growth after inoculation (Table 4, Paint 2, +0.2% guanidine carbonate (1312 ppm guanidine), pH 9.1, 1. inoculation, 14 d): 0/0
- Bacterial growth after inoculation (Table 4, Paint 2, +0.2% guanidine carbonate (1312 ppm guanidine), pH 9.1, 2. inoculation, 7 d): 0/0
- Bacterial growth after inoculation (Table 4, Paint 2, +0.2% guanidine carbonate (1312 ppm guanidine), pH 9.1, 2. inoculation, 14 d): 0/0
- Bacterial growth after inoculation (Table 4, Paint 2, +0.2% guanidine carbonate (1312 ppm guanidine), pH 9.1, 3. inoculation, 7 d): 6/6
- Bacterial growth after inoculation (Table 4, Paint 2, +0.2% guanidine carbonate (1312 ppm guanidine), pH 9.1, 3. inoculation, 14 d): 6/6
- Bacterial growth after inoculation (Table 4, Paint 2, +0.25% guanidine carbonate (1640 ppm guanidine), pH 9.1, 1. inoculation, 7 d): 0/0
- Bacterial growth after inoculation (Table 4, Paint 2, +0.25% guanidine carbonate (1640 ppm guanidine), pH 9.1, 1. inoculation, 14 d): 0/0
- Bacterial growth after inoculation (Table 4, Paint 2, +0.25% guanidine carbonate (1640 ppm guanidine), pH 9.1, 2. inoculation, 7 d): 0/0
- Bacterial growth after inoculation (Table 4, Paint 2, +0.25% guanidine carbonate (1640 ppm guanidine), pH 9.1, 2. inoculation, 14 d): 0/0
- Bacterial growth after inoculation (Table 4, Paint 2, +0.25% guanidine carbonate (1640 ppm guanidine), pH 9.1, 3. inoculation, 7 d): 0/0
- Bacterial growth after inoculation (Table 4, Paint 2, +0.25% guanidine carbonate (1640 ppm guanidine), pH 9.1, 3. inoculation, 14 d): 0/0
- Bacterial growth after inoculation (Table 4, Paint 2, +0.3% guanidine carbonate (1968 ppm guanidine), pH 9.2, 1. inoculation, 7 d): 0/0
- Bacterial growth after inoculation (Table 4, Paint 2, +0.3% guanidine carbonate (1968 ppm guanidine), pH 9.2, 1. inoculation, 14 d): 0/0
- Bacterial growth after inoculation (Table 4, Paint 2, +0.3% guanidine carbonate (1968 ppm guanidine), pH 9.2, 2. inoculation, 7 d): 0/0
- Bacterial growth after inoculation (Table 4, Paint 2, +0.3% guanidine carbonate (1968 ppm guanidine), pH 9.2, 2. inoculation, 14 d): 0/0
- Bacterial growth after inoculation (Table 4, Paint 2, +0.3% guanidine carbonate (1968 ppm guanidine), pH 9.2, 3. inoculation, 7 d): 0/0
- Bacterial growth after inoculation (Table 4, Paint 2, +0.3% guanidine carbonate (1968 ppm guanidine), pH 9.2, 3. inoculation, 14 d): 0/0
- Bacterial growth after inoculation (Table 4, Paint 2, +0.4% guanidine carbonate (2624 ppm guanidine), pH 9.3, 1. inoculation, 7 d): 0/0
- Bacterial growth after inoculation (Table 4, Paint 2, +0.4% guanidine carbonate (2624 ppm guanidine), pH 9.3, 1. inoculation, 14 d): 0/0
- Bacterial growth after inoculation (Table 4, Paint 2, +0.4% guanidine carbonate (2624 ppm guanidine), pH 9.3, 2. inoculation, 7 d): 0/0
- Bacterial growth after inoculation (Table 4, Paint 2, +0.4% guanidine carbonate (2624 ppm guanidine), pH 9.3, 2. inoculation, 14 d): 0/0
- Bacterial growth after inoculation (Table 4, Paint 2, +0.4% guanidine carbonate (2624 ppm guanidine), pH 9.3, 3. inoculation, 7 d): 0/0
- Bacterial growth after inoculation (Table 4, Paint 2, +0.4% guanidine carbonate (2624 ppm guanidine), pH 9.3, 3. inoculation, 14 d): 0/0
- Bacterial growth after inoculation (Table 4, Paint 2, +0.5% guanidine carbonate (3280 ppm guanidine), pH 9.4, 1. inoculation, 7 d): 0/0
- Bacterial growth after inoculation (Table 4, Paint 2, +0.5% guanidine carbonate (3280 ppm guanidine), pH 9.4, 1. inoculation, 14 d): 0/0
- Bacterial growth after inoculation (Table 4, Paint 2, +0.5% guanidine carbonate (3280 ppm guanidine), pH 9.4, 2. inoculation, 7 d): 0/0
- Bacterial growth after inoculation (Table 4, Paint 2, +0.5% guanidine carbonate (3280 ppm guanidine), pH 9.4, 2. inoculation, 14 d): 0/0
- Bacterial growth after inoculation (Table 4, Paint 2, +0.5% guanidine carbonate (3280 ppm guanidine), pH 9.4, 3. inoculation, 7 d): 0/0
- Bacterial growth after inoculation (Table 4, Paint 2, +0.5% guanidine carbonate (3280 ppm guanidine), pH 9.4, 3. inoculation, 14 d): 0/0
- Bacterial growth after inoculation (Table 4, Paint 2, +1.0% guanidine carbonate (6560 ppm guanidine), pH 9.8, 1. inoculation, 7 d): 0/0
- Bacterial growth after inoculation (Table 4, Paint 2, +1.0% guanidine carbonate (6560 ppm guanidine), pH 9.8, 1. inoculation, 14 d): 0/0
- Bacterial growth after inoculation (Table 4, Paint 2, +1.0% guanidine carbonate (6560 ppm guanidine), pH 9.8, 2. inoculation, 7 d): 0/0
- Bacterial growth after inoculation (Table 4, Paint 2, +1.0% guanidine carbonate (6560 ppm guanidine), pH 9.8, 2. inoculation, 14 d): 0/0
- Bacterial growth after inoculation (Table 4, Paint 2, +1.0% guanidine carbonate (6560 ppm guanidine), pH 9.8, 3. inoculation, 7 d): 0/0
- Bacterial growth after inoculation (Table 4, Paint 2, +1.0% guanidine carbonate (6560 ppm guanidine), pH 9.8, 3. inoculation, 14 d): 0/0
- Bacterial growth after inoculation (Table 5, Paint 3, +0.15% guanidine carbonate (984 ppm guanidine), pH 11.2, 1. inoculation, 7 d): 3 (Moderate growth, maximum 300 to 400 colonies)
- Bacterial growth after inoculation (Table 5, Paint 3, +0.15% guanidine carbonate (984 ppm guanidine), pH 11.2, 1. inoculation, 14 d): 0
- Bacterial growth after inoculation (Table 5, Paint 3, +0.15% guanidine carbonate (984 ppm guanidine), pH 11.2, 2. inoculation, 7 d): 3 (Moderate growth, maximum 300 to 400 colonies)
- Bacterial growth after inoculation (Table 5, Paint 3, +0.15% guanidine carbonate (984 ppm guanidine), pH 11.2, 2. inoculation, 14 d): 0
- Stabilization of the paint against microbial infestation (table 4, addition of 0.1% by weight to paint 1 having a pH of 9.1 or greater): distinct stabilization
- Stabilization of the paint against microbial infestation (table 4, addition of 0.1% by weight to paint 2 having a pH of 8.9 or greater): distinct stabilization
- Stabilization of the paint against microbial infestation (table 5, paint having a pH of pH 11.2, addition of 0.1% by weight): distinct stabilization
